Source: PubChem BioAssay (NCI)
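96-well plates; 48 h exposure; 5 concentrations. Endpoints by linear interpolation between flanking doses. Not reached: highest tested concentration assigned. At the TGI there is no net growth.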 Where a SMILES comes first, the peptide text is derived from it. The star is where a group is joined. Bn = c1ccc(C*)cc1

Columns and labels:
Test in all cases: DTP human tumour cell line panel, 48 h
SW-620 colon = test system: SW-620 colon
HOP-62 NSCLC = test system: HOP-62 NSCLC
BT-549 breast = test system: BT-549 breast
OVCAR-4 ovarian = test system: OVCAR-4 ovarian
SK-MEL-5 melanoma = test system: SK-MEL-5 melanoma
M14 melanoma = test system: M14 melanoma
HCT-15 colon = test system: HCT-15 colon
OVCAR-3 ovarian = test system: OVCAR-3 ovarian
KM12 colon = test system: KM12 colon
HL-60(TB) leukemia = test system: HL-60(TB) leukemia

SMILES | TGI (SW-620 colon) | TGI (HOP-62 NSCLC) | TGI (BT-549 breast) | TGI (OVCAR-4 ovarian) | TGI (SK-MEL-5 melanoma) | TGI (M14 melanoma) | TGI (HCT-15 colon) | TGI (OVCAR-3 ovarian) | TGI (KM12 colon) | TGI (HL-60(TB) leukemia)
COc1ccc(N=C2C(=S)N(c3ccc(OC)cc3)/C(=N/S(=O)(=O)c3ccccc3)N2c2ccccc2)cc1 | 16.3 µM | > 57 µM | 11.2 µM | 22.4 µM | 11.1 µM | 12.2 µM | 23.5 µM | 18.1 µM | 34.6 µM | > 100 µM
CCCOC(=O)NC(C)C(=O)NC(CCC(=O)NC(CCCC(N)C(=O)O)C(=O)NC(C)C(=O)O)C(=O)O (stereo not given) | 62.3 µM | > 100 µM | 37.9 µM | 70.6 µM | 30.5 µM | 40.6 µM | 34.6 µM | > 100 µM | 27.4 µM | 42.1 µM
COc1cc2c(cc1OC)C13CC[N+]4(C)CC5=CCOC6CC(=O)N2C1C6C5CC34[O-] (stereo not given) | > 100 µM | > 100 µM | > 100 µM | > 100 µM | > 100 µM | > 100 µM | > 100 µM | > 100 µM | > 100 µM | > 100 µM
CC1=C[C@@H](C)C[C@]2(C)CC[C@H](O2)[C@]23CC[C@](C(=O)O)(C[C@H](O2)[C@@H]2O[C@@](C)(CC2=O)[C@@H](O)[C@H]2CC[C@@]4(CCC[C@@H](O4)[C@H](C)C(=O)O[C@H]4C[C@H]([C@]5(O)OCC[C@H](C)[C@@H]5O)O[C@H]4C=C1)O2)O3 | > 10 µM | > 10 µM | > 10 µM | > 10 µM | > 10 µM | > 10 µM | > 10 µM | > 10 µM | > 10 µM | > 10 µM
COc1cc(OCc2ccc3nc(OC)c(OC)nc3c2)cc(OC)c1OC | > 10 µM | > 10 µM | > 6.32 µM | > 10 µM | > 10 µM | > 10 µM | > 10 µM | > 10 µM | > 10 µM | > 10 µM
COc1c(O)c(O)cc2c1-c1ccc(OC)c(=O)cc1C(NC(C)=O)CC2 (stereo not given) | 63.3 µM | 87.1 µM | 14.9 µM | 77.2 µM | 11.3 µM | > 79 µM | > 100 µM | 5.77 µM | 33 µM | 18 µM
N#CCCN(CCC#N)c1ccc(/C=C2\SC(=S)NC2=O)cc1Br | > 100 µM | 40.4 µM | > 100 µM | > 100 µM | > 100 µM | > 100 µM | > 100 µM | > 100 µM | > 100 µM | > 100 µM
COP(=O)(OC)C12CCOCCN1c1ccccc1C2=O (stereo not given) | > 100 µM | > 100 µM | > 100 µM | > 100 µM | > 100 µM | > 100 µM | > 100 µM | > 100 µM | > 100 µM | > 100 µM
N#Cc1c(C#N)c(-c2ccccc2)n(-c2ccccc2)c1N | > 100 µM | > 100 µM | > 100 µM | > 100 µM | > 100 µM | > 100 µM | > 100 µM | > 100 µM | > 100 µM | > 100 µM
O=C1CS(=O)C23c4cc5ccccc5n4CCC2CCCN13 (stereo not given) | > 100 µM | > 100 µM | > 100 µM | > 100 µM | > 100 µM | > 100 µM | > 100 µM | > 100 µM | > 100 µM | > 100 µM
O=C1CCc2ccc3c(c21)CC1(Cc2ccccc2C1)C3 | > 100 µM | > 100 µM | > 100 µM | > 100 µM | 11.4 µM | > 100 µM | > 100 µM | 28.8 µM | 46 µM | 7.03 µM
COc1cc(C=C2C(=O)NC(=S)NC2=O)cc(OC)c1OC | > 100 µM | > 100 µM | > 100 µM | > 100 µM | > 100 µM | > 100 µM | > 100 µM | > 100 µM | > 100 µM | > 100 µM
CCN(CC)CCNc1ccc2ncn3c4cc(OC)c(OC)c(=O)c4c(O)c1c23 | 16.5 µM | 28.2 µM | 30.5 µM | 24.4 µM | 29.8 µM | 30.3 µM | 24.7 µM | 31.7 µM | 23.2 µM | 26.3 µM
COC(=O)C(CC(C)C)NC(=O)C(N)Cc1ccc(OCc2ccccc2)cc1 (stereo not given) (H-Tyr(Bn)-Leu-OMe; configuration not given here) | > 10 µM | > 10 µM | > 10 µM | > 10 µM | > 10 µM | > 10 µM | > 10 µM | > 10 µM | > 10 µM | 5.61 µM
O=C(O)c1c2c(cc3c1CC1(Cc4ccccc4C1=O)C3)CCC2 (stereo not given) | > 100 µM | > 100 µM | > 93.4 µM | > 100 µM | > 65 µM | 70.7 µM | > 100 µM | > 100 µM | > 100 µM | 14.9 µM
NS(=O)(=O)c1ccc(NC(NC(=O)C(C(F)(F)F)C(F)(F)F)(C(F)(F)F)C(F)(F)F)cc1 | > 100 µM | > 100 µM | > 100 µM | > 100 µM | > 100 µM | > 100 µM | > 100 µM | > 100 µM | > 100 µM | > 100 µM
N#CC(=N)c1ncn(-c2ccccc2N)c1N | > 100 µM | > 100 µM | > 100 µM | > 100 µM | > 100 µM | > 100 µM | > 100 µM | > 100 µM | > 100 µM | > 100 µM
O=C1c2cccc(NCCNCCO)c2C(=O)c2cccc(NCCNCCO)c21 | 11 µM | 4.14 µM | 8.85 µM | 2.49 µM | 3.39 µM | 3.57 µM | 19 µM | 4.74 µM | 4.48 µM | 5.19 µM
